A short description of data set [1]: Excretion and residual organ gadolinium concentration. The settings on record: male rats, 0.1 mmol Gd/kg i.v. The data set is classed as in vivo, male rats (Han-Wistar). How it is done:
The excretion and organ distribution of Example 3 were determined in male rats (Han-Wistar, 100-110 g, n=3). The compound was administered as a sterile aqueous solution (54 mmol Gd/L) as a bolus in the tail vein of the animals. The dose was 0.1 mmol Gd/kg. Urine was collected in the following time periods 0-1 h, 1-3 h, 3-6 h, 6-24 h, 1-2 d and 2-5 d post injection and feces 0-1 d, 1-2 d and 2-5 d post injection. As a control, 3 animals were treated in the same way with Gadovist®, a low molecular weight contrast agent. On day 7 the animals were sacrificed and the following organs were excised: blood, liver, kidney, spleen, heart, lung, brain, mesenteric lymph nodes, muscle, skin, stomach, gut, bone and bone marrow. The remaining carcass was freeze dried and ground to a fine powder. The Gd concentration in the organs and the carcass was determined by ICP-MS (ICP-MS Agilent 7500a, Waldbronn, Germany). The Example 3 is excreted quickly via the kidneys. After 3 h 95.8%±3.4% of the injected dose was found in urine and 96.9%±3.7% after 5 days. About 1.4%±0.6% was excreted via the feces. Less than 0.5% of the administered dose was present in the body 7 days after the injection. The individual organs contained less than 0.03% of the injected dose, except the kidney which is the excretion organ.

Data set [2] in a line: Whole body imaging (dynamic MRI and tissue Gd concentration). The class given is in vivo, male New Zealand white rabbits. The settings on record: rabbits. How it is done:
The study was performed with a clinical whole body MRI equipped with body spine coil, abdomen flex coil, neck coil (1.5 T Magnetom Avanto, Siemens Healthcare, Erlangen, Germany). The study was done using male New Zealand white rabbits (weight 2.3-3.0 kg, n=8, Charles River Kisslegg). All animals were initially anesthetized using a body weight-adjusted intramuscular injection of a mixture (1+2) of xylazine hydrochloride (20 mg/mL, Rompun 2%, Bayer Vital GmbH, Leverkusen, Germany) and ketamine hydrochloride (100 mg/mL, Ketavet, Pfizer, Pharmacia GmbH, Berlin, Germany) using 1 mL/kg body weight. The continuous anesthesia of the intubated animals (endotracheal tube, Rueschelit Super Safe Clear, cuff 3.0 mm, Willy Ruesch AG, Kernen, Germany) was achieved by the intravenous injection of 0.9 mg propofol per kilogram per hour (10 mg/mL, Propofol-Lipuro 1%, B. Braun Melsungen AG, Melsungen, Germany). The continuous intravenous injection was performed using a MR infusion system (Continuum MR Infusion System, Medrad Europe B. V., A E Beek, Germany). The tracheal respiration (SV 900C, Maquet, Rastatt, Germany) was performed with 55% oxygen, forty breaths per minute and a breathing volume of 7 mL per kilogram body weight per minute.
Dynamic MRI measurements up to 22 min post injection with subsequent quantitative signal analysis (Siemens Mean Curve software (SYNGO Task Card, Siemens Healthcare, Erlangen, Germany), were performed for three different regions head and neck (brain, tongue, chops muscle, neck muscle), abdomen (spleen, liver, blood) and pelvis (extremity muscle). For the three different slice groups a 3D T1-weighted Vibe sequence was used (TR=4.74 ms, TE=2.38, flip=10°, 1:29 min). The dynamic measurements of the three slice groups (Head/Neck: 1:29 min, Abdomen: 0:49 min, Pelvis: 1:16 min) were done up to 22 min post injection: 1. Head/Neck: baseline, 1.4, 5.2, 8.9, 12.8, 16.5, 20.4 min, 2. Abdomen: baseline, 0.5, 4.3, 8.1, 11.9, 15.7, 19.5 min and 3. Pelvis: baseline, 2.9, 6.7, 10.5, 14.4, 18.1, 22.0 min. At 30 min post injection the animals were sacrificed and the Gd concentrations were measured using Inductively Coupled Plasma Mass Spectroscopy (ICP-MS Agilent 7500a, Waldbronn, Germany) in the following tissue samples: blood, brain, tongue, liver and extremity muscle. A quantitative image evaluation was performed for the 30 min time point p.i. due to the combination of the quantitative ICP-MS Gadolinium concentrations and the MRI region-of-interest analysis.

We go through one compound from patent US11491245B2, “Gadolinium chelate compounds for use in magnetic resonance imaging” (BAYER PHARMA AKTIENGESELLSCHAFT, priority 2015, dated 2022).

Entries after “also recorded” stand apart in the source; their conditions may differ.

Consider `CC(C(=O)NCC(=O)NCC(CNC(=O)CNC(=O)C(C)N1CCN(CC(=O)[O-])CCN(CC(=O)[O-])CCN(CC(=O)[O-])CC1)(CNC(=O)CNC(=O)C(C)N1CCN(CC(=O)[O-])CCN(CC(=O)[O-])CCN(CC(=O)[O-])CC1)CNC(=O)CNC(=O)C(C)N1CCN(CC(=O)[O-])CCN(CC(=O)[O-])CCN(CC(=O)[O-])CC1)N1CCN(CC(=O)[O-])CCN(CC(=O)[O-])CCN(CC(=O)[O-])CC1.[Gd+3].[Gd+3].[Gd+3].[Gd+3]` (stereo not shown) [Example 3, Tetragadolinium [4,10-bis(carboxylatomethyl)-7-{3,6,12,15-tetraoxo-16-[4,7,10-tris-(carboxylatomethyl)-1,4,7,10-tetraazacyclododecan-1-yl]-9,9-bis({[({2-[4,7,10-tris-(carboxylatomethyl)-1,4,7,10-tetraazacyclododecan-1-yl]propanoyl}amino)acetyl]-amino}methyl)-4,7,11,14-tetraazaheptadecan-2-yl}-1,4,7,10-tetraazacyclododecan-1-yl]acetate], for which, in data set [1], the “Feces excretion 0-1 d post injection” value turned out to be 1.13 ± 0.62% Dose, the “Feces excretion 1-2 d post injection” value came out at 0.10 ± 0.02% Dose, the “Feces excretion 2-5 d post injection” value was determined as 0.13 ± 0.01% Dose and the Total recovery came out at 98.8 ± 3.1% Dose. Moreover, in data set [1], the “Urine excretion 0-1 h post injection” value is 90.36 ± 4.4% Dose, the “Urine excretion 1-3 h post injection” value turned out to be 5.43 ± 1.04% Dose, the “Urine excretion 1-2 d post injection” value was 0.14 ± 0.01% Dose and the “Urine excretion 2-5 d post injection” value amounted to 0.34 ± 0.03% Dose. In data set [1], the “Urine excretion 3-6 h post injection” value is recorded as 0.46 ± 0.38% Dose, the “Urine excretion 6-24 h post injection” value is reported as 0.17 ± 0.02% Dose, the “administered dose present in the body 7 days after the injection” value is reported as “Less than 0.5%” and the “excreted via the feces” value is listed as “About 1.4%”. In addition, the “Σ organs and carcass 7 d post injection” value in data set [1] came to 0.49 ± 0.01% Dose. For the same compound, in data set [1] (7 days), the “injected dose in the individual organs (except the kidney)” value was “less than 0.03%”. In data set [1] (cumulative), the “injected dose found in urine after 3 h” value stood at 95.8% and the “injected dose found in urine after 5 days” value was determined as 96.9%. Further, the “slope of the linear regression between tissue gadolinium concentration and MRI signal change” value in data set [2] (tissues 30 min p.i., FIGS. 8A and 8B) is reported as 1.9. The “time course of contrast enhancements / signal changes” value in data set [2] (various tissues, up to 22 min post injection, vs Reference compound 1, FIG. 7) is listed as “No differences in the time course of signal changes were observed; also recorded: no differences in the time course of contrast enhancements were observed”. Moreover, the “contrast enhancement (amplitude)” value in data set [2] (various tissues, vs Reference compound 1, FIG. 7) is reported as “higher compared to that of Reference compound 1”.
